Source: patent publication US20230398125A1, “TREATING HEPATITIS” (Albireo AB, priority 2022, published 2023)
Where two headings read alike, the source gives them in different places.

What was measured:
M. fascicularis Ntcp = molecular target: T1, M. fascicularis Ntcp (Macaca fascicularis, UniProt G7PAR4); test: [3H]TC transport in HEK293 cells transiently transfected with M. fascicularis Ntcp; type: cell-based; details: read-out: IC50 bile acid transport via M. fascicularis Ntcp
T1 construct: expressed in transfected cells; host or cells: GripTite 293 MSR (HEK293) cells, transient, Lipofectamine 2000
T1 sequence (G7PAR4 1-349): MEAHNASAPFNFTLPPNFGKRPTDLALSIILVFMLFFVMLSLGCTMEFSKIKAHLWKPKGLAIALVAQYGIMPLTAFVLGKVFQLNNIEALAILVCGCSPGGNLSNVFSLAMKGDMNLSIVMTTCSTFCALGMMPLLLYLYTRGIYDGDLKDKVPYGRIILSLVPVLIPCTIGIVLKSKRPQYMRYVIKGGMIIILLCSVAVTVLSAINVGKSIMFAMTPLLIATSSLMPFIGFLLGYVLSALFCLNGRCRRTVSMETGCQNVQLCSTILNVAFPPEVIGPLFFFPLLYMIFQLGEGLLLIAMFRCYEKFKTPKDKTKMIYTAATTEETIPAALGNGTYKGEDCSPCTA
Experimental: GripTite 293 MSR cells (here referred to as HEK293 cells, Invitrogen), a modified HEK293 cell line expressing human macrophage scavenger receptor for stronger adhesion, were maintained at 37° C., 5% CO2 and 95% humidity in DMEM/F-12 medium (Thermo Fisher Scientific) supplemented with 10% fetal calf serum (Sigma), 4 mM L-glutamine (PAA) and penicillin/streptomycin. HEK293 cells were transiently transfected with the M. fascicularis Ntcp cDNA construct for transport and peptide binding assays. Transfection was performed with Lipofectamine 2000 (Thermo Fisher Scientific). […]
Bile acid transport measurements were performed in the NTCP-HEK293 cells with tritium-labelled taurocholic acid (here referred to as [^3H]TC) (20 Ci/mmol, 0.09 mCi/mL, Perkin Elmer, Waltham, USA). […] Cell-associated radioactivity of [^3H]TC or [^3H]preS1 was quantified by liquid scintillation counting in a Packard Microplate Scintillation Counter TopCount NXT (Packard Instrument Company, Meriden, USA). Transport rates and [^3H]preS1 binding were determined in counts per minute (cpm). The mean of the 0% control was subtracted and the net [^3H]TC transport rates and net [^3H]preS1 binding rates, respectively, were expressed as % of control. IC50 values were calculated from quadruplicate determinations by GraphPad Prism 6 (GraphPad, San Diego, Calif., USA). […]

[1] = Pharmacokinetic phase: plasma exposure after oral dosing in non-infected PXB mice; type: in vivo; details: for concentration at 0.5 h / concentration at 1 h / concentration at 2 h / concentration at 4 h / concentration at 6 h / concentration at 24 h: PXB, mouse, plasma, po
Experimental: Thirty microliters (30 μL) of blood were collected from all animals under isoflurane anesthesia via the retro-orbital plexus/sinus using sodium heparin-coated calibrated pipettes according to the collection schedule shown in Table 7. The individual blood samples of the animals were transferred to labeled microtubes and stored under chilled conditions until centrifugation at 3500×g, 5° C. for 10 minutes to obtain plasma. Individual plasma samples were transferred into separately labeled microtubes and snap frozen in liquid nitrogen. The plasma exposure of Compound 1 from the pharmacokinetic phase was measured via LC/MS- MS. The lower limit of quantitation was 1 ng/mL.

[2] = 10 mg/kg, non-infected PXB mice, 10 mg/kg p.o., animal 101, read-out: Plasma conc.
[3] = 10 mg/kg, non-infected PXB mice, 10 mg/kg p.o., animal 102, read-out: Plasma conc.
[4] = 10 mg/kg, non-infected PXB mice, 10 mg/kg p.o., animal 103, read-out: Plasma conc.
[5] = 10 mg/kg, non-infected PXB mice, 10 mg/kg p.o., mean of 3 animals, read-out: Plasma conc. Mean ± SD
[6] = 10 mg/kg, non-infected PXB mice, 10 mg/kg p.o., animal 201, read-out: Plasma conc.
[7] = 10 mg/kg, non-infected PXB mice, 10 mg/kg p.o., animal 202, read-out: Plasma conc.
[8] = 10 mg/kg, non-infected PXB mice, 10 mg/kg p.o., animal 203, read-out: Plasma conc.
[9] = 30 mg/kg, non-infected PXB mice, 30 mg/kg p.o., animal 301, read-out: Plasma conc.
[10] = 30 mg/kg, non-infected PXB mice, 30 mg/kg p.o., animal 302, read-out: Plasma conc.
[11] = 30 mg/kg, non-infected PXB mice, 30 mg/kg p.o., animal 303, read-out: Plasma conc.
[12] = 30 mg/kg, non-infected PXB mice, 30 mg/kg p.o., mean of 3 animals, read-out: Plasma conc. Mean ± SD
[13] = 30 mg/kg, non-infected PXB mice, 30 mg/kg p.o., animal 401, read-out: Plasma conc.
[14] = 30 mg/kg, non-infected PXB mice, 30 mg/kg p.o., animal 402, read-out: Plasma conc.
[15] = 30 mg/kg, non-infected PXB mice, 30 mg/kg p.o., animal 403, read-out: Plasma conc.

With CCCCC1CN(c2ccccc2)c2cc(SC)c(O/C=C(\F)C(=O)O)cc2S(=O)(=O)N1C (stereo not drawn) [Compound 1, (Z)-3-((3-butyl-2-methyl-7-(methylthio)-1,1-dioxido-5-phenyl-2,3,4,5-tetrahydro-1,2,5-benzothiadiazepin-8-yl)oxy)-2-fluoroacrylic acid] the IC50 (M. fascicularis Ntcp) was 200 nM, the “plasma exposure versus dose” value ([1]; 10 and 30 mg/kg p.o.) was “increased with increased dose” and the detection in plasma ([1]; 10 and 30 mg/kg p.o., non-infected PXB mice) was “detected in plasma throughout the 24-hour time period”. For the same compound, the concentration at 0.5 h [1, 2] was 1290 ng/mL, the concentration at 0.5 h [1, 3] was 2650 ng/mL and the concentration at 0.5 h [1, 4] was 727 ng/mL. The concentration at 0.5 h [1, 5] was 1560 ± 990 ng/mL, the concentration at 1 h [1, 6] was 492 ng/mL and the concentration at 1 h [1, 7] was 763 ng/mL. For the same compound, the concentration at 1 h [1, 8] was 1810 ng/mL, the concentration at 1 h [1, 5] was 1020 ± 690 ng/mL and the concentration at 2 h [1, 2] was 194 ng/mL. It also gave a concentration at 2 h [1, 3] of 322 ng/mL, a concentration at 2 h [1, 4] of 177 ng/mL and a concentration at 2 h [1, 5] of 231 ± 79 ng/mL. The concentration at 4 h [1, 6] was 111 ng/mL, the concentration at 4 h [1, 7] was 61.4 ng/mL and the concentration at 4 h [1, 8] was 587 ng/mL. For the same compound, the concentration at 4 h [1, 5] was 253 ± 290 ng/mL, the concentration at 6 h [1, 2] was 46.2 ng/mL and the concentration at 6 h [1, 3] was 63.5 ng/mL. The concentration at 6 h [1, 4] was 130 ng/mL, the concentration at 6 h [1, 5] was 80 ± 44 ng/mL and the concentration at 24 h [1, 6] was 25.3 ng/mL. It also gave a concentration at 24 h [1, 7] of 27.2 ng/mL, a concentration at 24 h [1, 8] of 1.4 ng/mL and a concentration at 24 h [1, 5] of 18 ± 14 ng/mL. For the same compound, the concentration at 0.5 h [1, 9] was 1880 ng/mL, the concentration at 0.5 h [1, 10] was 2910 ng/mL and the concentration at 0.5 h [1, 11] was 6810 ng/mL. The concentration at 0.5 h [1, 12] was 3870 ± 2600 ng/mL, the concentration at 1 h [1, 13] was 4560 ng/mL and the concentration at 1 h [1, 14] was 5320 ng/mL. For the same compound, the concentration at 1 h [1, 15] was 1470 ng/mL, the concentration at 1 h [1, 12] was 3780 ± 2000 ng/mL and the concentration at 2 h [1, 9] was 2420 ng/mL. It also gave a concentration at 2 h [1, 10] of 590 ng/mL, a concentration at 2 h [1, 11] of 3040 ng/mL and a concentration at 2 h [1, 12] of 2020 ± 1300 ng/mL. The concentration at 4 h [1, 13] was 1120 ng/mL, the concentration at 4 h [1, 14] was 1090 ng/mL and the concentration at 4 h [1, 15] was 217 ng/mL. For the same compound, the concentration at 4 h [1, 12] was 811 ± 510 ng/mL, the concentration at 6 h [1, 9] was 554 ng/mL and the concentration at 6 h [1, 10] was 99.8 ng/mL. For the same compound, the concentration at 6 h [1, 11] was 1490 ng/mL, the concentration at 6 h [1, 12] was 715 ± 700 ng/mL and the concentration at 24 h [1, 13] was 230 ng/mL. The concentration at 24 h [1, 14] was 229 ng/mL, the concentration at 24 h [1, 15] was 148 ng/mL and the concentration at 24 h [1, 12] was 202 ± 47 ng/mL.
